Measured values published in the NIST ThermoML archive (doi:10.1016/j.jct.2008.07.005).
Numbers after ± are expanded uncertainties.

Assay: xn = mol fraction of the nth substance listed
Conditions: 98.93 kPa, Liquid

## CC(O)CO (stereo not given) [1,2-propanediol] + O
283.15 K, x1 = 0.002
  mass density: 1000.28 ± 1.3 kg/m3
283.15 K, x1 = 0.005
  mass density: 1001.15 ± 1.3 kg/m3
283.15 K, x1 = 0.01
  mass density: 1002.65 ± 1.3 kg/m3
283.15 K, x1 = 0.019
  mass density: 1005.45 ± 1.3 kg/m3
283.15 K, x1 = 0.03
  mass density: 1008.94 ± 1.3 kg/m3
283.15 K, x1 = 0.04
  mass density: 1012.38 ± 1.4 kg/m3
283.15 K, x1 = 0.05
  mass density: 1015.77 ± 1.4 kg/m3
283.15 K, x1 = 0.065
  mass density: 1020.67 ± 1.4 kg/m3
283.15 K, x1 = 0.08
  mass density: 1025.18 ± 1.4 kg/m3
283.15 K, x1 = 0.1
  mass density: 1030.57 ± 1.4 kg/m3
283.15 K, x1 = 0.125
  mass density: 1035.97 ± 1.4 kg/m3
283.15 K, x1 = 0.1526
  mass density: 1039.91 ± 1.5 kg/m3
283.15 K, x1 = 0.17
  mass density: 1041.79 ± 1.5 kg/m3
283.15 K, x1 = 0.18
  mass density: 1042.67 ± 1.5 kg/m3
283.15 K, x1 = 0.2
  mass density: 1043.92 ± 1.5 kg/m3
288.15 K, x1 = 0.002
  mass density: 999.66 ± 1.3 kg/m3
288.15 K, x1 = 0.005
  mass density: 1000.5 ± 1.3 kg/m3
288.15 K, x1 = 0.01
  mass density: 1001.93 ± 1.3 kg/m3
288.15 K, x1 = 0.019
  mass density: 1004.9 ± 1.3 kg/m3
288.15 K, x1 = 0.03
  mass density: 1007.94 ± 1.3 kg/m3
288.15 K, x1 = 0.04
  mass density: 1011.16 ± 1.3 kg/m3
288.15 K, x1 = 0.05
  mass density: 1014.38 ± 1.3 kg/m3
288.15 K, x1 = 0.065
  mass density: 1018.96 ± 1.3 kg/m3
288.15 K, x1 = 0.08
  mass density: 1023.18 ± 1.3 kg/m3
288.15 K, x1 = 0.1
  mass density: 1027.89 ± 1.4 kg/m3
288.15 K, x1 = 0.125
  mass density: 1032.58 ± 1.4 kg/m3
288.15 K, x1 = 0.1526
  mass density: 1036.53 ± 1.4 kg/m3
288.15 K, x1 = 0.17
  mass density: 1038.5 ± 1.4 kg/m3
288.15 K, x1 = 0.18
  mass density: 1039.47 ± 1.4 kg/m3
288.15 K, x1 = 0.2
  mass density: 1041 ± 1.4 kg/m3
293.15 K, x1 = 0.002
  mass density: 998.73 ± 1.2 kg/m3
293.15 K, x1 = 0.005
  mass density: 999.55 ± 1.2 kg/m3
293.15 K, x1 = 0.01
  mass density: 1000.93 ± 1.2 kg/m3
293.15 K, x1 = 0.019
  mass density: 1003.81 ± 1.2 kg/m3
293.15 K, x1 = 0.03
  mass density: 1006.74 ± 1.2 kg/m3
293.15 K, x1 = 0.04
  mass density: 1009.69 ± 1.2 kg/m3
293.15 K, x1 = 0.05
  mass density: 1012.66 ± 1.2 kg/m3
293.15 K, x1 = 0.065
  mass density: 1016.94 ± 1.3 kg/m3
293.15 K, x1 = 0.08
  mass density: 1020.8 ± 1.3 kg/m3
293.15 K, x1 = 0.1
  mass density: 1025.18 ± 1.3 kg/m3
293.15 K, x1 = 0.125
  mass density: 1029.58 ± 1.3 kg/m3
293.15 K, x1 = 0.1526
  mass density: 1033.34 ± 1.3 kg/m3
293.15 K, x1 = 0.17
  mass density: 1035.11 ± 1.3 kg/m3
293.15 K, x1 = 0.18
  mass density: 1035.98 ± 1.3 kg/m3
293.15 K, x1 = 0.2
  mass density: 1037.19 ± 1.3 kg/m3
298.15 K, x1 = 0.002
  mass density: 997.56 ± 1.3 kg/m3
298.15 K, x1 = 0.005
  mass density: 998.32 ± 1.3 kg/m3
298.15 K, x1 = 0.01
  mass density: 999.63 ± 1.3 kg/m3
298.15 K, x1 = 0.019
  mass density: 1002.37 ± 1.3 kg/m3
298.15 K, x1 = 0.03
  mass density: 1005.17 ± 1.3 kg/m3
298.15 K, x1 = 0.04
  mass density: 1008.04 ± 1.3 kg/m3
298.15 K, x1 = 0.05
  mass density: 1010.8 ± 1.3 kg/m3
298.15 K, x1 = 0.065
  mass density: 1014.74 ± 1.3 kg/m3
298.15 K, x1 = 0.08
  mass density: 1018.36 ± 1.3 kg/m3
298.15 K, x1 = 0.1
  mass density: 1022.6 ± 1.4 kg/m3
298.15 K, x1 = 0.125
  mass density: 1027.01 ± 1.4 kg/m3
298.15 K, x1 = 0.1526
  mass density: 1030.86 ± 1.4 kg/m3
298.15 K, x1 = 0.17
  mass density: 1032.86 ± 1.4 kg/m3
298.15 K, x1 = 0.18
  mass density: 1033.9 ± 1.4 kg/m3
298.15 K, x1 = 0.2
  mass density: 1035.6 ± 1.4 kg/m3
303.15 K, x1 = 0.002
  mass density: 996.13 ± 1.3 kg/m3
303.15 K, x1 = 0.005
  mass density: 996.87 ± 1.3 kg/m3
303.15 K, x1 = 0.01
  mass density: 998.12 ± 1.3 kg/m3
303.15 K, x1 = 0.019
  mass density: 1000.73 ± 1.4 kg/m3
303.15 K, x1 = 0.03
  mass density: 1003.41 ± 1.4 kg/m3
303.15 K, x1 = 0.04
  mass density: 1006.07 ± 1.4 kg/m3
303.15 K, x1 = 0.05
  mass density: 1008.65 ± 1.4 kg/m3
303.15 K, x1 = 0.065
  mass density: 1012.36 ± 1.4 kg/m3
303.15 K, x1 = 0.08
  mass density: 1015.78 ± 1.4 kg/m3
303.15 K, x1 = 0.1
  mass density: 1019.88 ± 1.4 kg/m3
303.15 K, x1 = 0.125
  mass density: 1024.14 ± 1.4 kg/m3
303.15 K, x1 = 0.1526
  mass density: 1028.08 ± 1.4 kg/m3
303.15 K, x1 = 0.17
  mass density: 1030.11 ± 1.4 kg/m3
303.15 K, x1 = 0.18
  mass density: 1031.1 ± 1.5 kg/m3
303.15 K, x1 = 0.2
  mass density: 1032.73 ± 1.5 kg/m3
308.15 K, x1 = 0.002
  mass density: 994.48 ± 1.4 kg/m3
308.15 K, x1 = 0.005
  mass density: 995.17 ± 1.4 kg/m3
308.15 K, x1 = 0.01
  mass density: 996.34 ± 1.4 kg/m3
308.15 K, x1 = 0.019
  mass density: 998.77 ± 1.4 kg/m3
308.15 K, x1 = 0.03
  mass density: 1001.32 ± 1.4 kg/m3
308.15 K, x1 = 0.04
  mass density: 1003.85 ± 1.4 kg/m3
308.15 K, x1 = 0.05
  mass density: 1006.42 ± 1.4 kg/m3
308.15 K, x1 = 0.065
  mass density: 1010.15 ± 1.4 kg/m3
308.15 K, x1 = 0.08
  mass density: 1013.54 ± 1.4 kg/m3
308.15 K, x1 = 0.1
  mass density: 1017.51 ± 1.5 kg/m3
308.15 K, x1 = 0.125
  mass density: 1021.52 ± 1.5 kg/m3
308.15 K, x1 = 0.1526
  mass density: 1024.73 ± 1.5 kg/m3
308.15 K, x1 = 0.17
  mass density: 1026.33 ± 1.5 kg/m3
308.15 K, x1 = 0.18
  mass density: 1027.06 ± 1.6 kg/m3
308.15 K, x1 = 0.2
  mass density: 1027.98 ± 1.6 kg/m3
